# Data reported in article PMC6892925, “Development of Novel Silyl Cyanocinnamic Acid Derivatives as Metabolic Plasticity Inhibitors for Cancer Treatment” (Scientific Reports, 2019).
# Entries after “also recorded” stand apart in the source; their conditions may differ.
# Experiments:
# healthy CD-1 mice = assay: In vivo systemic toxicity study; parameters: species or system mouse; conditions: once daily 25 mg/kg, 16-day treatment period
# Protocol: (§1) Based on in vitro cell proliferation inhibition, MCT1 inhibition, and effects on glycolysis/mitochondrial function, we advanced candidate compounds 2a and 2b for translational in vivo safety and efficacy studies. […] Next, an MCT1 expressing WiDr tumor xenograft model was chosen to evaluate the efficacy of 2a and 2b. After tumors were inoculated, they were allowed to reach ~150 mm^3 volume, and mice were randomly divided into three groups. Group-1 was administered 25 mg/kg (i.p.) of compound 2a, group-2 was administered with 25 mg/kg (i.p.) of 2b, and group-3 was designated as control group and given an injection of vehicle. Treatment was continued for 16 days, and tumor volumes were recorded. […] During the two-week treatment period, there was no significant loss of body weights in mice between treated and control groups. […] At the end of the study, all the tumors were resected, and the tumor mass was weighed (Fig. 6D).
# Five-week-old healthy CD-1 mice (Charles River) were obtained and acclimatized for one week prior to treatment. Mice (n = 6) were grouped randomly based on average body weight. […] Mice body weights were recorded daily as a proxy for animal health and were also examined for proper activity and grooming patterns. […]
# [1] = system: MCT1 expressing WiDr tumor xenograft; assay: In vivo tumor growth inhibition study, WiDr tumor xenograft; parameters: species or system mouse; conditions: 25 mg/kg i.p., 16 days; for tumor growth suppression: vs control group
# Protocol: as §1
# WiDr cells (5 × 10^6 cells) were suspended in 1:1 mixture of matrigel (Corning, cat. no. 356237) and PBS and injected subcutaneously into the right flank of female athymic nude mice (Charles River). The mice were randomly assigned into 3 groups (n = 6 mice per group). Vertical and horizontal diameters of tumors were measured every two- or three-days using calipers. The tumor volumes were calculated assuming a perfect sphere using the formula V = ab^2/2 where ‘a’ is the longer diameter of the tumor and ‘b’ is the shorter diameter of the tumor. Treatment was initiated when the tumor volume reached 100 mm^3. The study was terminated after sixteen days and tumors were then resected and weighed. All procedures performed using this method were approved by the University of Minnesota Institutional Animal Care and Use Committee (IACUC, protocol no. 1612-34444A) and are in accordance with all guidelines and regulations.
# MDA-MB-231 cells [2] = assay: Western blot analysis of cell damage and death markers; assay type: cell-based, human
# Protocol: (§2) Owing to the enhanced antiproliferative effects induced by test compound 2a when compared to CHC, western blot analysis of cell damage and death markers was performed. The master transcription factor p53 regulates the expression of numerous genes involved in cancer progression and is responsible for balancing proliferation and apoptosis. In this regard, we evaluated the effects of compound treatment on p53 expression. Literature reports indicate that MDA-MB-231 and WiDr cells express distinct homozygous mutant forms of p53 that promote an aggressive malignant phenotype with resistance to apoptosis[36],[37]. […] Further, PARP1 is involved in the DNA repair pathway through sensing DNA-strand breaks and recruiting repair enzymes. Importantly, PARP1 is a target of caspase cleavage under apoptotic conditions, and the appearance of the PARP1 cleavage product is a widely used indicator of cellular apoptosis. […] Additionally, DNA damage may be a downstream effect of apoptotic nuclease activity or an increase in reactive oxygen species (ROS) from damaged mitochondria; as illustrated in microscopy and seahorse experiments. Histone 2AX phosphorylation (γH2AX) resulting from DNA single- and double-strand breaks is a widely employed marker for DNA damage. In this regard, we investigated the effect of 2a on DNA damage marker γH2AX (phosphorylated Ser139, histone H2AX) with a phospho-specific antibody. […] Due to the potential of ROS leading to DNA damage and H2AX phosphorylation, we investigated the ability of antioxidant N-acetyl cysteine (NAC) to inhibit DNA damage of compound 2a as evidenced by H2AX phosphorylation in the highly oxidative cell line WiDr (Fig. 4A).
# (§3) 50,000 WiDr or MDA-MB-231 cells were seeded in 100 mm dishes and were incubated for 48 hours. Cells were then treated with test compounds for 24 hours, washed twice with 1X PBS, solubilized in 200 μL SDS boiling buffer (5% w/v SDS, 10% v/v glycerol, and 60 mM Tris pH 6.8), and sonicated. The resulting cell lysate was then assayed for protein using the Pierce BCA protocol. A volume of test sample containing 10 μg protein was loaded on SDS PAGE gel for electrophoresis according to manufacturer’s instructions. Proteins were transferred from the gel to nitrocellulose membrane according to the manufacturer’s instructions. Membranes were blocked for 1 hr at 35 °C using 10% (w/v) non-fat milk in PBST and were exposed to primary antibody. PARP1 (rabbit polyclonal IgG, Origene, TA321555), p53 (rabbit polyclonal IgG, Santa Cruz, sc50329), and γ-H2AX (Upstate 05-636, 1:2500) were detected and visualized using HRP chemiluminescence. For relative quantitation, β-actin (mouse monoclonal IgG C4, Millipore, MAB1501, 1:10,000) and GAPDH (mouse monoclonal IgG, Santa Cruz, sc47724, 1:100) were detected and measured as a control protein.
# WiDr cells [3] = assay: as above; assay type: cell-based, human; conditions: WiDr
# Protocol: as §2, §3
# MDA-MB-231 cells [4] = assay: Mitotracker Red CMXROS fluorescent microscopy; assay type: cell-based, human; conditions: 30 μM, 24-hour exposure
# Protocol: (§4) To evaluate the effects on mitochondrial morphology and vitality, Mitotracker Red CMXROS (MTR) fluorescence imaging experiments were employed. […] Furthermore, differential interference contrast (DIC) microscope images illustrate substantial membrane blebbing and vesiculation in compound treated cultures (Fig. 6).
# (§5) MDA-MB-231 or WiDr cells (5 × 10^4 cells/mL) were seeded in glass-bottom dishes (MatTek Corp, part no. P35G010C) and incubated for 48 hours. Test compound (30 μM) was added and cells were again incubated for 24 hours prior to fluorescent microscopic imaging. In some cultures, MitoTracker Red CMXROS (Invitrogen, M7512, 100 nM) was added 15 min prior to imaging. The growth media was removed and replaced with 5% FBS in 1X PBS for imaging. Cells were then examined and photographed using a Nikon TE2000 epifluorescent microscope and camera. The images shown are representative of at least 3 fields of view of three separate experiments.
# WiDr cells [5] = assay: Mitotracker Red CMXROS fluorescent microscopy; assay type: cell-based, human; conditions: 30 μM, 24-hour exposure
# Protocol: as §4, §5
SMILES,"systemic toxicity / tolerability (body weight gains, behavior, grooming) (healthy CD-1 mice)",tumor growth suppression [1] [%],"PARP1 cleavage (MDA-MB-231 cells [2]; 100 μM, 24 hours)","expression of γH2AX (DNA damage marker) (MDA-MB-231 cells [2]; 100 μM, 24 hours)",p53 expression (MDA-MB-231 cells [2]; 24 hours treatment),"PARP1 cleavage (WiDr cells [3]; 100 μM, 24 hours)","expression of γH2AX (DNA damage marker) (WiDr cells [3]; 100 μM, 24 hours)",p53 expression (WiDr cells [3]; 24 hours treatment),tumor volume vs control group [1],MTR fluorescence / mitochondrial morphology (MDA-MB-231 cells [4]),MTR fluorescence / mitochondrial morphology (WiDr cells [5])
CC(C)(C)[Si](OCCOc1ccc(/C=C(\C#N)C(=O)O)cc1)(c1ccccc1)c1ccccc1 [2b],well tolerated,28,,,,,,,,,
CC(C)(C)[Si](Oc1ccc(/C=C(\C#N)C(=O)O)cc1)(c1ccccc1)c1ccccc1 [2a],well tolerated,36,induced PARP1 cleavage,substantial increases,increase in p53 expression,induced PARP1 cleavage,substantial increases,not in WiDr,significant suppression in tumor volume,more diffuse and dim general cytoplasmic fluorescence; also recorded: substantial redistribution of MTR,more diffuse and dim general cytoplasmic fluorescence; also recorded: substantial redistribution of MTR
